Measured values from patent US20250333406A1, “SULFONYL CYCLIC DERIVATIVES, AND COMPOSITIONS AND METHODS THEREOF” (Lysoway Therapeutics, Inc., priority 2023, published 2025).
pEC50: −log10 of the molar value.

system: TFEB; assay: TFEB Nuclear Translocation Assay; type: cell-based; conditions: read-out: EC50 of TFEB activation

pEC50, ≥ 6.00:
CC(C)S(=O)(=O)c1ccc(S(=O)(=O)n2nc(N3CCCC34CC4)c3c(Cl)cccc32)s1 [Compound 17, 4-chloro-1-((5-(isopropylsulfonyl)thiophen-2-yl)sulfonyl)-3-(4-azaspiro [2.4]heptan-4-yl)-1H-indazole]
CC(C)S(=O)(=O)c1ccc(S(=O)(=O)n2nc(N3CCN(c4ncc(F)cn4)CC3(C)C)c3c(Cl)cccc32)cc1 [Compound 18, 4-chloro-3-(4-(5-fluoropyrimidin-2-yl)-2,2-dimethylpiperazin-1-yl)-1-((4-(isopropylsulfonyl)phenyl)sulfonyl)-1H-indazole]
CC(C)S(=O)(=O)c1ccc(S(=O)(=O)n2nc(N3CCN(c4ccc(F)cn4)CC34CC4)c3c(F)cc(F)cc32)cc1 [Compound 19, 4,6-difluoro-3-[7-(5-fluoro-2-pyridyl)-4,7-diazaspiro [2.5]octan-4-yl]-1-(4-isopropylsulfonylphenyl) sulfonyl-indazole]
CC(C)S(=O)(=O)c1ccc(S(=O)(=O)n2nc(N3CCN(c4ncc(F)cn4)CC34CC4)c3c(F)cc(F)cc32)cc1 [Compound 20, 4,6-difluoro-3-[7-(5-fluoropyrimidin-2-yl)-4,7-diazaspiro [2.5]octan-4-yl]-1-(4-isopropylsulfonylphenyl) sulfonyl-indazole]
CC(C)(F)S(=O)(=O)c1ccc(S(=O)(=O)n2nc(N3CCN(c4ncc(F)cn4)CC34CC4)c3c(Cl)cccc32)cc1 [Compound 22, 4-chloro-1-((4-((2-fluoropropan-2-yl)sulfonyl)phenyl)sulfonyl)-3-(7-(5-fluoropyrimidin-2-yl)-4,7-diazaspiro [2.5]octan-4-yl)-1H-indazole]
CC(C)S(=O)(=O)c1ccc(S(=O)(=O)n2nc(N3CCN(c4ccc(F)cn4)CC34CC4)c3c(Cl)cccc32)cc1 [Compound 23, 4-chloro-3-[7-(5-fluoro-2-pyridyl)-4,7-diazaspiro [2.5]octan-4-yl]-1-(4-isopropylsulfonylphenyl) sulfonyl-indazole]
CC(C)S(=O)(=O)c1ccc(S(=O)(=O)n2nc(N3CCN(c4ncc(F)cc4F)CC34CC4)c3c(Cl)cccc32)cc1 [Compound 24, 4-chloro-3-[7-(3,5-difluoro-2-pyridyl)-4,7-diazaspiro [2.5]octan-4-yl]-1-(4-isopropylsulfonylphenyl) sulfonyl-indazole]
CC(C)S(=O)(=O)c1ccc(S(=O)(=O)n2nc(N3CCN(c4ccc(F)cn4)CC34CC4)c3c(F)cccc32)cc1 [Compound 25, 4-fluoro-3-[7-(5-fluoro-2-pyridyl)-4,7-diazaspiro [2.5]octan-4-yl]-1-(4-isopropylsulfonylphenyl) sulfonyl-indazole]
CC(C)S(=O)(=O)c1ccc(S(=O)(=O)n2nc(N3CCN(c4ncc(F)cc4F)CC34CC4)c3c(F)cccc32)cc1 [Compound 26, 3-[7-(3,5-difluoro-2-pyridyl)-4,7-diazaspiro [2.5]octan-4-yl]-4-fluoro-1-(4-isopropylsulfonylphenyl) sulfonyl-indazole]
CC(C)S(=O)(=O)c1ccc(S(=O)(=O)n2nc(N3CCN(c4ncc(F)cc4F)CC34CC4)c3c(Cl)cc(F)cc32)cc1 [Compound 27, 4-chloro-3-[7-(3,5-difluoro-2-pyridyl)-4,7-diazaspiro [2.5]octan-4-yl]-6-fluoro-1-(4-isopropylsulfonylphenyl)sulfonyl-indazole]
CC(C)S(=O)(=O)c1ccc(S(=O)(=O)n2nc(N3CCN(c4ncc(F)cc4F)CC34CC4)c3c(F)cc(F)cc32)cc1 [Compound 28, 3-[7-(3,5-difluoro-2-pyridyl)-4,7-diazaspiro[2.5]octan-4-yl]-4,6-difluoro-1-(4-isopropylsulfonylphenyl)sulfonyl-indazole]
O=S(=O)(c1ccc(S(=O)(=O)n2nc(N3CCN(c4ncc(F)cn4)CC34CC4)c3c(Cl)cccc32)cc1)C1CC1 [Compound 29, 4-chloro-1-((4-(cyclopropylsulfonyl)phenyl)sulfonyl)-3-(7-(5-fluoropyrimidin-2-yl)-4,7-diazaspiro [2.5]octan-4-yl)-1H-indazole]
CC(C)S(=O)(=O)c1ccc(S(=O)(=O)n2nc(N3CCN(c4ncc(Cl)cc4F)CC34CC4)c3c(Cl)cccc32)s1 [Compound 30, 4-chloro-3-[7-(5-chloro-3-fluoro-2-pyridyl)-4,7-diazaspiro [2.5]octan-4-yl]-1-[(5-isopropylsulfonyl-2-thienyl)sulfonyl]indazole]
CC(C)S(=O)(=O)c1ccc(S(=O)(=O)n2nc(N3CCN(c4ncc(F)cc4F)CC34CC4)c3c(Cl)ccc(F)c32)s1 [Compound 31, 4-chloro-3-(7-(3,5-difluoropyridin-2-yl)-4,7-diazaspiro [2.5]octan-4-yl)-7-fluoro-1-((5-(isopropylsulfonyl)thiophen-2-yl)sulfonyl)-1H-indazole]
CC(C)S(=O)(=O)c1ccc(S(=O)(=O)n2nc(N3CCN(c4ncc(F)cc4F)CC34CC4)c3c(F)ccc(F)c32)s1 [Compound 32, 3-[7-(3,5-difluoro-2-pyridyl)-4,7-diazaspiro [2.5]octan-4-yl]-4,7-difluoro-1-[(5-isopropylsulfonyl-2-thienyl)sulfonyl]indazole]
CC(C)S(=O)(=O)c1ccc(S(=O)(=O)n2nc(N3CCN(c4ncc(Cl)cc4F)CC34CC4)c3c(F)ccc(F)c32)s1 [Compound 33, 3-[7-(5-chloro-3-fluoro-2-pyridyl)-4,7-diazaspiro [2.5]octan-4-yl]-4,7-difluoro-1-[(5-isopropylsulfonyl-2-thienyl)sulfonyl]indazole]
CC(C)S(=O)(=O)c1ccc(S(=O)(=O)n2nc(N3CCN(c4ncc(F)cn4)CC34CC4)c3c(F)ccc(F)c32)s1 [Compound 34, 4,7-difluoro-3-(7-(5-fluoropyrimidin-2-yl)-4,7-diazaspiro [2.5]octan-4-yl)-1-((5-(isopropylsulfonyl)thiophen-2-yl)sulfonyl)-1H-indazole]
CC(C)S(=O)(=O)c1ccc(S(=O)(=O)n2nc(N3CCN(c4ncc(Cl)cc4F)CC34CC4)c3c(Cl)cc(F)cc32)s1 [Compound 35, 4-chloro-3-(7-(5-chloro-3-fluoropyridin-2-yl)-4,7-diazaspiro[2.5]octan-4-yl)-6-fluoro-1-((5-(isopropylsulfonyl)thiophen-2-yl)sulfonyl)-1H-indazole]
CC(C)S(=O)(=O)c1ccc(S(=O)(=O)n2nc(N3CCN(c4ncc(Cl)cn4)CC34CC4)c3c(Cl)cc(F)cc32)s1 [Compound 36, 4-chloro-3-(7-(5-chloropyrimidin-2-yl)-4,7-diazaspiro [2.5]octan-4-yl)-6-fluoro-1-((5-(isopropylsulfonyl)thiophen-2-yl)sulfonyl)-1H-indazole]
CC(C)S(=O)(=O)c1ccc(S(=O)(=O)n2nc(N3CCN(c4ncc(F)cc4F)CC34CC4)c3c(Cl)cc(F)cc32)s1 [Compound 37, 4-chloro-3-[7-(3,5-difluoro-2-pyridyl)-4,7-diazaspiro [2.5]octan-4-yl]-6-fluoro-1-[(5-isopropylsulfonyl-2-thienyl)sulfonyl]indazole]
CC(C)S(=O)(=O)c1ccc(S(=O)(=O)n2nc(N3CCN(c4ncc(F)cn4)CC34CC4)c3c(Cl)cc(F)cc32)s1 [Compound 38, 4-chloro-6-fluoro-3-(7-(5-fluoropyrimidin-2-yl)-4,7-diazaspiro [2.5]octan-4-yl)-1-((5-(isopropylsulfonyl)thiophen-2-yl)sulfonyl)-1H-indazole]
CC(C)S(=O)(=O)c1ccc(S(=O)(=O)n2nc(N3CCN(c4ncc(Cl)s4)CC34CC4)c3c(Cl)cc(F)cc32)s1 [Compound 39, 5-chloro-2-(4-(4-chloro-6-fluoro-1-((5-(isopropylsulfonyl)thiophen-2-yl)sulfonyl)-1H-indazol-3-yl)-4,7-diazaspiro [2.5]octan-7-yl) thiazole]
CC(C)S(=O)(=O)c1ccc(S(=O)(=O)n2nc(N3CCN(c4ncc(F)cc4F)CC34CC4)c3c(F)cc(F)cc32)s1 [Compound 40, 3-(7-(3,5-difluoropyridin-2-yl)-4,7-diazaspiro [2.5]octan-4-yl)-4,6-difluoro-1-((5-(isopropylsulfonyl)thiophen-2-yl)sulfonyl)-1H-indazole]
CC(C)S(=O)(=O)c1ccc(S(=O)(=O)n2nc(N3CCN(c4ccc(F)cn4)CC34CC4)c3c(Cl)cc(F)cc32)s1 [Compound 41, 4-chloro-6-fluoro-3-[7-(5-fluoro-2-pyridyl)-4,7-diazaspiro [2.5]octan-4-yl]-1-[(5-isopropylsulfonyl-2-thienyl)sulfonyl]indazole]
CC(C)S(=O)(=O)c1ccc(S(=O)(=O)n2nc(N3CCN(c4ccc(F)cn4)CC34CC4)c3c(Cl)cccc32)s1 [Compound 42, 4-chloro-3-(7-(5-fluoropyridin-2-yl)-4,7-diazaspiro [2.5]octan-4-yl)-1-((5-(isopropylsulfonyl)thiophen-2-yl)sulfonyl)-1H-indazole]
CC(C)S(=O)(=O)c1ccc(S(=O)(=O)n2nc(N3CCN(c4ncc(Cl)cn4)CC34CC4)c3c(Cl)cccc32)s1 [Compound 43, 4-chloro-3-[7-(5-chloropyrimidin-2-yl)-4,7-diazaspiro [2.5]octan-4-yl]-1-[(5-isopropylsulfonyl-2-thienyl)sulfonyl]indazole]
CC(C)S(=O)(=O)c1ccc(S(=O)(=O)n2nc(N3CCN(c4ncc(F)cn4)CC34CC4)c3c(Cl)cccc32)s1 [Compound 44, 4-chloro-3-[7-(5-fluoropyrimidin-2-yl)-4,7-diazaspiro [2.5]octan-4-yl]-1-[(5-isopropylsulfonyl-2-thienyl)sulfonyl]indazole]
